In patent publication US9321809B2, “Macrocyclic compounds for suppressing replication of hepatitis C virus” (Ginkgo Pharma Co., Ltd., priority 2012, dated 2016):

Test system: HCV replicon-containing huh-7 cells (replicon 1b)
Assay: HCV Replicon Assay (luciferase readout)
Type: cell-based
Details: Hepatitis C virus; HCV replicon 1b in huh-7 cells, 48 h incubation, 1% DMSO, luciferase signal; read-out: EC50 (EC 50 on replicon 1b)
Experimental: Compounds of formuala (I) are tested for the ability to inhibit viral replication of the Hepatitis C viruses by the following in vitro assays.
DMEM (Life Technologies #41965-039) was supplemented with 10% FBS, 2 mM L-glutamine (Life Technologies #25030-024), penicillin (100 units/ml)/streptomycin (100 micrograms/ml) (Life Technologies #15140-114), 1× non-essential amino acids (Life Technologies #11140-035).
Complete media was prepared by mixing FBS, DMEM media with Geneticin (G418). The compete media was preincubated at 37° C. in a CO2 incubator. Then, HCV replicon-containing huh-7 cells (V. Lohmann et. al. Science, 285, (1999)110-113) was taken out from 37° C. incubator. The residual medium was absorbed, and the cells were washed with PBS. After washing fluid was removed, 1 ml 0.25% trypsin/0.02% EDTA solution. The cells were washed by the above trypsin/EDTA solution to make sure that each cell was cleaned. After the trypsin/EDTA solution was absorbed, the mixture was incubated at 37° C. in a CO2 incubator for 3-5 minutes. Morphological changes were observed by inverted microscope, till the cells were detached from the wall of container completely.
3 ml of complete media was added to make the cells to suspend. The cells are counted with hematometer. Appropriate volumes of the complete media was added to adjust the cell density to 100,000/ml. Cells were plated with 100 μl of suspension at 10,000/well of 96 well plate. Plates were placed into 37° C. 5% CO2 incubator for 24 h.
Preparation of Drug Solution:
Drugs were diluted under aseptic conditions.
Stock solutions may be prepared before the assay, which means that the test compounds are dissolved in 100% DMSO to afford a final concentration of 2 mM. Before the 96 well culture was completed, the stock solution was diluted with culter media to 100 fold of the final concentration (100× solution).
96-well plates were taken out from 37° C. CO2 incubator and morphological changes were observed by inverted microscope. In a ventilator, 1 μl of 100× drug solution was added to wells of 96 well plate until the final concentration of DMSO in the mixture is 1%. The plates were incubated at 37° C. in a CO2 environment for 48 h. 30 μl of Stead-G1® Luciferase Assay System (bought from Promega) was added to each well of 96 well plates and each plate is shaken in a plate shaker for 5 minutes to ensure cells cleavaged completely. The fluorescence signal was quantitated in a Perkin-Elmer plate reader (Envision) and integral time was setted to be 2 second. The following data were achieved after recording and analyzing the data.

Row | SMILES | EC50
1 | CCC1C[C@]1(NC(=O)[C@@H]1C[C@@H]2CN1C(=O)[C@H](C1CCCCC1)NC(=O)[C@@H](NC(=O)OC(C)(C)C)COCCCc1cc3c(nccc3cc1OC)O2)C(=O)NS(=O)(=O)C1CC1 (stereo in doubt) [Compound IIb-6, tert-butyl N-[(3R,5S,8S,11S)-8-cyclohexyl-5-{[(1R,2S)-1-[(cyclopropanesulfonyl)carbamoyl]-2-ethylcyclopropyl]carbamoyl}-18-methoxy-7,10-dioxo-2,13-dioxa-6,9,23-triazatetracyclo[15.6.2.1^3,6.0^20,24]hexacosa-1(23),17(25),18,20(24),21-pentaen-11-yl]carbamate] | 50 to 500 nM
2 | C=C[C@@H]1C[C@]1(NC(=O)[C@@H]1C[C@@H]2CN1C(=O)[C@H](C(C)(C)C)NC(=O)[C@@H](N)COC/C=C/c1cccc3c1CN(C3)C(=O)O2)C(=O)NS(=O)(=O)C1CC1 [Compound IIa-2, (1R,12E,17S,20S,23S)-17-amino-20-tert-butyl-N-[(1R,2S)-1-[(cyclopropanesulfonyl)carbamoyl]-2-ethenylcyclopropyl]-3,18,21-trioxo-2,15-dioxa-4,19,22-triazatetracyclo[20.2.1.1^4,7.0^6,11]hexacosa-6,8,10,12-tetraene-23-carboxamide] | 10 to 50 nM
3 | C=C[C@@H]1C[C@]1(NC(=O)[C@@H]1C[C@@H]2CN1C(=O)[C@H](C(C)(C)C)NC(=O)[C@H](NC(=O)OC(C)(C)C)COC/C=C/c1cccc3c1CN(C3)C(=O)O2)C(=O)NS(=O)(=O)C1CC1 [Compound IIa-3, tert-butyl N-[(1R,12E,17R,20S,23S)-20-tert-butyl-23-{[(1R,2S)-1-[(cyclopropanesulfonyl)carbamoyl]-2-ethenylcyclopropyl]carbamoyl}-3,18,21-trioxo-2,15-dioxa-4,19,22-triazatetracyclo[20.2.1.1^4,7.0^6,11]hexacosa-6,8,10,12-tetraen-17-yl]carbamate] | 50 to 500 nM
4 | C=C[C@@H]1C[C@]1(NC(=O)[C@@H]1C[C@@H]2CN1C(=O)[C@H](C(C)(C)C)NC(=O)[C@H](N)COC/C=C/c1cccc3c1CN(C3)C(=O)O2)C(=O)NS(=O)(=O)C1CC1 [Compound IIa-4, (1R,12E,17R,20S,23S)-17-amino-20-tert-butyl-N-[(1R,2S)-1-[(cyclopropanesulfonyl)carbamoyl]-2-ethenylcyclopropyl]-3,18,21-trioxo-2,15-dioxa-4,19,22-triazatetracyclo[20.2.1.1^4,7.0^6,11]hexacosa-6,8,10,12-tetraene-23-carboxamide] | 500 to 20000 nM
5 | C=C[C@@H]1C[C@]1(NC(=O)[C@@H]1C[C@@H]2CN1C(=O)[C@H](C(C)(C)C)NC(=O)[C@@H](NC(=O)c1cnccn1)COC/C=C/c1cccc3c1CN(C3)C(=O)O2)C(=O)NS(=O)(=O)C1CC1 [Compound IIa-5, (1R,12E,17S,20S,23S)-20-tert-butyl-23-N-[(1R,2S)-1-[(cyclopropanesulfonyl)carbamoyl]-2-ethenylcyclopropyl]-3,18,21-trioxo-17-C-pyrazine-2-2,15-dioxa-4,19,22-triazatetracyclo[20.2.1.1^4,7.0^6,11]hexacosa-6,8,10,12-tetraene-17,23-diamido] | 50 to 500 nM
6 | C=C[C@@H]1C[C@]1(NC(=O)[C@@H]1C[C@@H]2CN1C(=O)[C@H](C(C)(C)C)NC(=O)[C@H](NC(=O)c1cnccn1)COC/C=C/c1cccc3c1CN(C3)C(=O)O2)C(=O)NS(=O)(=O)C1CC1 [Compound IIa-6, (1R,12E,17R,20S,23S)-20-tert-butyl-23-N-[(1R,2S)-1-[(cyclopropanesulfonyl)carbamoyl]-2-ethenylcyclopropyl]-3,18,21-trioxo-17-C-pyrazine-2-2,15-dioxa-4,19,22-triazatetracyclo[20.2.1.1^4,7.0^6,11]hexacosa-6,8,10,12-tetraene-17,23-diamido] | 50 to 500 nM
7 | C=C[C@@H]1C[C@]1(NC(=O)[C@@H]1C[C@@H]2CN1C(=O)[C@H](C(C)(C)C)NC(=O)[C@@H](NC(C)=O)COC/C=C/c1cccc3c1CN(C3)C(=O)O2)C(=O)NS(=O)(=O)C1CC1 [Compound IIa-7, (1R,12E,17S,20S,23S)-20-tert-butyl-N-[(1R,2S)-1-[(cyclopropanesulfonyl)carbamoyl]-2-ethenylcyclopropyl]-17-acetamido-3,18,21-trioxo-2,15-dioxa-4,19,22-triazatetracyclo[20.2.1.1^4,7.0^6,11]hexacosa-6,8,10,12-tetraene-23-carboxamide] | 50 to 500 nM
8 | C=C[C@@H]1C[C@]1(NC(=O)[C@@H]1C[C@@H]2CN1C(=O)[C@H](C(C)(C)C)NC(=O)[C@@H](NS(C)(=O)=O)COC/C=C/c1cccc3c1CN(C3)C(=O)O2)C(=O)NS(=O)(=O)C1CC1 [Compound IIa-8, (1R,12E,17S,20S,23S)-20-tert-butyl-N-[(1R,2S)-1-[(cyclopropanesulfonyl)carbamoyl]-2-ethenylcyclopropyl]-17-methanesulfonamido-3,18,21-trioxo-2,15-dioxa-4,19,22-triazatetracyclo[20.2.1.1^4,7.0^6,11]hexacosa-6,8,10,12-tetraene-23-carboxamide] | 10 to 50 nM
9 | C=C[C@@H]1C[C@]1(NC(=O)[C@@H]1C[C@@H]2CN1C(=O)[C@H](C(C)(C)C)NC(=O)[C@@H](NC(=O)OCC)COC/C=C/c1cccc3c1CN(C3)C(=O)O2)C(=O)NS(=O)(=O)C1CC1 [Compound IIa-9, ethyl N-[(1R,12E,17S,20S,23S)-20-tert-butyl-23-{[(1R,2S)-1-[(cyclopropanesulfonyl)carbamoyl]-2-ethenylcyclopropyl]carbamoyl}-3,18,21-trioxo-2,15-dioxa-4,19,22-triazatetracyclo[20.2.1.1^4,7.0^6,11]hexacosa-6,8,10,12-tetraen-17-yl]carbamate] | 10 to 50 nM
10 | C=C[C@@H]1C[C@]1(NC(=O)[C@@H]1C[C@@H]2CN1C(=O)[C@H](C(C)(C)C)NC(=O)[C@@H](NC(=O)OCc1ccccc1)COC/C=C/c1cccc3c1CN(C3)C(=O)O2)C(=O)NS(=O)(=O)C1CC1 [Compound IIa-10, benzyl N-[(1R,12E,17S,20S,23S)-20-tert-butyl-23-{[(1R,2S)-1-[(cyclopropanesulfonyl)carbamoyl]-2-ethenylcyclopropyl]carbamoyl}-3,18,21-trioxo-2,15-dioxa-4,19,22-triazatetracyclo[20.2.1.1^4,7.0^6,11]hexacosa-6,8,10,12-tetraen-17-yl]carbamate] | < 10 nM
11 | C=C[C@@H]1C[C@]1(NC(=O)[C@@H]1C[C@@H]2CN1C(=O)[C@H](C(C)(C)C)NC(=O)[C@@H](NC(=O)OC1CCCC1)COC/C=C/c1cccc3c1CN(C3)C(=O)O2)C(=O)NS(=O)(=O)C1CC1 [Compound IIa-11, cyclopentyl N-[(1R,12E,17S,20S,23S)-20-tert-butyl-23-{[(1R,2S)-1-[(cyclopropanesulfonyl)carbamoyl]-2-ethenylcyclopropyl]carbamoyl}-3,18,21-trioxo-2,15-dioxa-4,19,22-triazatetracyclo[20.2.1.1^4,7.0^6,11]hexacosa-6,8,10,12-tetraen-17-yl]carbamate] | < 10 nM
